Source: the CheMixHub drug solubility set

Assay: xn = mol fraction of the nth substance listed, in the solute-free solvent

Cl.c1ccc2c(CC3=NCCN3)cccc2c1 + CO + CC(C)O
solubility (g/100 g solution)
Conditions	278.15 K	283.15 K	288.15 K	293.15 K	298.15 K	303.15 K	308.15 K	313.15 K	318.15 K	323.15 K
x2 = 0.1724	0.41	0.484	0.577	0.695	0.819	1.01	1.16	1.42	1.62	1.85
x2 = 0.3192	0.793	0.94	1.05	1.29	1.46	1.74	2.05	2.38	2.74	3.14
x2 = 0.4456	1.3	1.58	1.8	2.14	2.45	2.88	3.31	3.94	4.53	5.08
x2 = 0.5556	1.91	2.41	2.82	3.29	3.8	4.3	5.07	6.02	6.76	7.78
x2 = 0.6522	2.34	2.72	3.12	3.71	4.22	4.92	5.63	6.51	7.33	8.47
x2 = 0.7377	2.88	3.52	4.25	5.06	5.99	6.93	7.8	8.95	10.2	11.5
x2 = 0.814	3.62	4.51	5.34	6.58	7.66	8.91	10.4	11.8	13.3	14.9
x2 = 0.8823	4.46	5.61	6.67	8.06	9.39	11	12.7	14.7	16.4	18.4
x2 = 0.944	5.43	6.55	7.62	9.25	10.7	12.9	15	17.3	19.4	21.8

Cl.c1ccc2c(CC3=NCCN3)cccc2c1 + CO + CCO
solubility (g/100 g solution)
Conditions	278.15 K	283.15 K	288.15 K	293.15 K	298.15 K	303.15 K	308.15 K	313.15 K	318.15 K	323.15 K
x2 = 0.1377	2.14	2.61	3.11	3.69	4.45	5.14	5.88	6.74	7.61	8.5
x2 = 0.2644	3.05	3.54	3.96	4.7	5.27	6.18	7.06	8.2	9.28	10.6
x2 = 0.3812	3.8	4.39	5.05	5.74	6.63	7.58	8.73	9.78	11.4	12.7
x2 = 0.4894	4.21	4.86	5.45	6.36	7.17	8	9.31	10.4	11.9	13.2
x2 = 0.5898	4.47	5.59	6.2	7.21	8.02	9.29	10.6	11.7	13.2	14.6
x2 = 0.6832	4.86	5.8	6.77	7.78	8.82	10	11.3	12.8	14.4	16.1
x2 = 0.7704	5.03	6.14	7.26	8.67	10.3	11.5	13.1	14.6	16.2	18.3
x2 = 0.8519	5.48	6.63	7.79	9.34	11	13.3	14.8	16.8	18.5	20.5
x2 = 0.9283	5.66	6.83	8.15	9.82	11.7	14	15.7	18	19.9	21.9
